Experimental data: US10179791B2, “Spiro-cyclic amine derivatives as S1P modulators” (AbbVie B.V., priority 2010, dated 2019)
Structures can show the parent of a compound that is named as a salt. Where two headings read alike, the source gives them in different places.

Columns and labels:
Assay type in all cases: cell-based
human S1P5 receptor = human S1P5 receptor (Homo sapiens (Human), UniProt Q9H228); assay: In vitro functional activity (agonism) on human S1P5 receptors, CHO-human-S1P5-Aequorin assay; details: aequorin luminescence, CHO cells, 3 independent experiments
Chain of human S1P5 receptor (Q9H228 whole entry): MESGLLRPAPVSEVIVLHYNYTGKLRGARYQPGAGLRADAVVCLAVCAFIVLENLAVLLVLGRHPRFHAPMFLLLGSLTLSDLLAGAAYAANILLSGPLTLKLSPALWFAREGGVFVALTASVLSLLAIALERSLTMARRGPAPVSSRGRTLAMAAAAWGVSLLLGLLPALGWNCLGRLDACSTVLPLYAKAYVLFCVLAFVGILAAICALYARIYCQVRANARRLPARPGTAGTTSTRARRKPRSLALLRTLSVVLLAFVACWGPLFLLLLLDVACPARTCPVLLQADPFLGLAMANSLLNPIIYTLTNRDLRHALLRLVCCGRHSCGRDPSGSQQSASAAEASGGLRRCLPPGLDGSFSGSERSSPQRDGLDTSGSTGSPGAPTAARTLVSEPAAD
Source text: In Vitro Functional Activity (Agonism) on Human S1P5 Receptors
(§1) The CHO-human-S1P5-Aeqorin assay was bought from Euroscreen, Brussels (Euroscreen, Technical dossier, Human Lysophospholid S1P5 (Edg8) receptor, DNA clone and CHO AequoScreen™ recombinant cell-line, catalog no: ES-593-A, September 2006). Human-S1P5-Aequorin cells express mitochondrial targeted apo-Aequorin. Cells have to be loaded with coelanterazine, in order to reconstitute active Aequorin. After binding of agonists to the human S1P5 receptor the intracellular calcium concentration increases and binding of calcium to the apo-Aequorin/coelenterazine complex leads to an oxidation reaction of coelenterazine, which results in the production of apo-Aequorin, coelenteramide, CO2 and light ([…]max 469 nm). This luminescent response is dependent on the agonist concentration. Luminescence is measured using the MicroBeta Jet (Perkin Elmer). Agonistic effects of compounds are expressed as pEC50. Compounds were tested at a 10 points half log concentration range, and 3 independent experiments were performed in single point's measurements.

human S1P3 receptor = human S1P3 receptor (Homo sapiens (Human), UniProt Q99500); assay: In vitro functional activity (agonism) on human S1P3 receptors, CHO-human-S1P3-Aequorin assay; details: aequorin luminescence, CHO K1 cells, 3 independent experiments, read-out: S1P3 pEC50 (converted)
Chain of human S1P3 receptor (Q99500 whole entry): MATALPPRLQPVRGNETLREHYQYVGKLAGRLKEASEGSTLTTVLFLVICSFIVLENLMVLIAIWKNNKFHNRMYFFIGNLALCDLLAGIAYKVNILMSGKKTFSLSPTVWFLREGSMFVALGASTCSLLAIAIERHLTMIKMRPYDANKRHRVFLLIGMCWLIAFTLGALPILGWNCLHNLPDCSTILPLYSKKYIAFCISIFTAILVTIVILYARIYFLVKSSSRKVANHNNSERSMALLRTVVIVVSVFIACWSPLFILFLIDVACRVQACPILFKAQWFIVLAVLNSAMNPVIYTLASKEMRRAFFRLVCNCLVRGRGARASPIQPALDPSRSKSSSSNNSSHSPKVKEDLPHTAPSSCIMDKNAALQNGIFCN
Source text: In Vitro Functional Activity (Agonism) on Human S1P3 Receptors
The CHO-human-S1P3-Aeqorin assay (CHO/Gα16/AEQ/h-S1P3) was established at Solvay Pharmaceuticals. The plasmid DNA coding for the S1P3 receptor (accession number in GenBank NM_005226 was purchased from UMR cDNA resource Centre (Rolla, Mo.). The pcDNA3.1/hS1P3 construct carrying the mitochondrially targeted apo-Aeqorin and Gal6 protein was transfected in CHO K1 cell-line.
as §1, with “Human-S1P3-Aequorin” for “The CHO-human-S1P5-Aeqorin assay was bought from Euroscreen, Brussels (Euroscreen, Technical dossier, Human Lysophospholid S1P5 (Edg8) receptor, DNA clone and CHO AequoScreen™ recombinant cell-line, catalog no: ES-593-A, September 2006). Human-S1P5-Aequorin”, “S1P3” for “S1P5”

human S1P1 = human S1P1 (Homo sapiens (Human), UniProt P21453); assay: In vitro functional activity (agonism) on human S1P1 receptors (method A), CHO-K1-human-S1P1-Aequorin assay
Chain of human S1P1 (P21453 whole entry): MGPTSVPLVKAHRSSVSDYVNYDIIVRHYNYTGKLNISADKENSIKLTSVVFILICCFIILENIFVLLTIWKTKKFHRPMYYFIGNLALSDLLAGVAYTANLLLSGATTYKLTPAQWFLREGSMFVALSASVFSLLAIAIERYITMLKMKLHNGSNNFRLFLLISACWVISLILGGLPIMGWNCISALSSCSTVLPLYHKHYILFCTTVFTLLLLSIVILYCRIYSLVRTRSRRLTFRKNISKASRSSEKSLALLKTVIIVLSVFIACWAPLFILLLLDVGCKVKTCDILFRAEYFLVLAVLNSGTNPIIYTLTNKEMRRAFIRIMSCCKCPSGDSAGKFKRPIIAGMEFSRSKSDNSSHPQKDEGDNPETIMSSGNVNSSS
Source text: In Vitro Functional Activity (Agonism) on Human S1P1 Receptors (Method A)
as §1, with “Human-S1P1-Aequorin” for “The CHO-human-S1P5-Aeqorin assay was bought from Euroscreen, Brussels (Euroscreen, Technical dossier, Human Lysophospholid S1P5 (Edg8) receptor, DNA clone and CHO AequoScreen™ recombinant cell-line, catalog no: ES-593-A, September 2006). Human-S1P5-Aequorin”, “S1P1” for “S1P5”, “2” for “3”

[1] = agonism, determined using method A (aequorin luminescence, CHO-K1 cells), 2 independent experiments, read-out: S1P1^A pEC50 (converted)

| SMILES | S1P5 pEC50 (human S1P5 receptor) | EC50 (human S1P3 receptor) [µM] | EC50 (human S1P1; [1]) [µM] | EC50 (human S1P1) [µM] |
| --- | --- | --- | --- | --- |
| O=C(O)CN1CCC2(CC1)COc1cc(C3CC3c3c(Cl)cccc3Cl)ccc12 (centres unmarked) [Compound 176, 2-{6-[2-(2,6-Dichlorophenyl)cyclopropyl]-2H-spiro[1-benzo-furan-3,4′-piperidine]-1′-yl}acetic acid hydrochloride] | 7.6 | > 10 | > 31.6 |  |
| CCc1cccc(CC)c1COc1ccc2c(c1)OCC21CCN(CCC(=O)O)CC1 [Compound 258, 3-{6-[(2,6-diethylphenyl)methoxy]-2H-spiro[1-benzo-furan-3,4′-piperidine]-1′-yl}propanoic acid] | 7.8 | > 10 |  | 2.51 |
| O=C(O)CCN1CCC2(CC1)COc1c2ccc(OCc2c(Cl)cc(Cl)cc2Cl)c1F [Compound 132, 3-{7-Fluoro-6-[(2,4,6-trichlorophenyl)methoxy]-2H-spiro[1-benzofuran-3,4′-piperidine]-1′-yl}propanoic acid hydrochloride] | 8.3 | 2 | > 31.6 |  |
| O=C(O)CCN1CCCC2(COc3cc(OCc4c(Cl)cccc4C4CC4)ccc32)C1 (centres unmarked) [Compound 317, 3-{6-[(2-Chloro-6-cyclopropylphenyl)methoxy]-2H-spiro[1-benzofuran-3,3′-piperidine]-1′-yl}propanoic acid hydrochloride] | 7 | > 10 | > 31.6 |  |
| O=C(O)CCN1CCC2(CC1)COc1cc(OCc3c(F)cccc3C3CC3)ccc12 [Compound 253, 3-{6-[(2-cyclopropyl-6-fluorophenyl)methoxy]-2H-spiro[1-benzofuran-3,4′-piperidine]-1′-yl}propanoic acid] | 7.7 | > 10 | 2.51 |  |
| O=C(O)CCN1CCC2(CC1)COc1cc(OCc3c(Cl)cccc3Cl)c(F)cc12 [Compound 289, 3-{6-[(2,6-Dichlorophenyl)methoxy]-5-fluoro-2H-spiro[1-benzofuran-3,4′-piperidine]-1′-yl}propanoic acid] | 7.5 | > 10 | > 31.6 |  |
| O=C(O)CCN1CCC2(CC1)COc1cc(OCc3c(Cl)cccc3C3CC3)ccc12 [Compound 75, 3-{6-[(2-Chloro-6-cyclopropyl)phenyl)methoxy]-2H-spiro[1-benzofuran-3,4′-piperidine]-1′-yl}propanoic acid hydrochloride] | 7.7 | > 10 | 2.51 |  |
| CCc1cccc(Cl)c1COc1ccc2c(c1F)OCC21CCN(CCC(=O)O)CC1 [Compound 136, 3-{6-[(2-Chloro-6-ethylphenyl)methoxy]-7-fluoro-2H-spiro[1-benzofuran-3,4′-piperidine]-1′-yl}propanoic acid hydrochloride] | 8 | > 10 | 1.26 |  |
| O=C(O)CCN1CCC2(CC1)COc1cc(OCc3c(Cl)cccc3OC(F)(F)F)ccc12 [Compound 77, 3-(6-{[2-Chloro-6-(trifluoromethoxy)phenyl]methoxy}-2H-spiro[1-benzofuran-3,4′-piperidine]-1′-yl)propanoic acid hydrochloride] | 7.6 | > 10 | 6.31 |  |
| O=C(O)CN1CCC2(CC1)COc1cc(OCc3c(Cl)cc(Cl)cc3Cl)ccc12 [Compound 110, 2-{6-[(2,4,6-Trichlorophenyl)methoxy]-2H-spiro[1-benzofuran-3,4′-piperidine]-1′-yl}acetic acid hydrochloride] | 7.8 | 2 | > 10 |  |
| CCc1cccc(Cl)c1CSc1ccc2c(c1)OCC21CCN(CCC(=O)O)CC1 [Compound 140, 3-(6-{[(2-Chloro-6-ethylphenyl)methyl]sulfanyl}-2H-spiro[1-benzofuran-3,4′-piperidine]-1′-yl}propanoic acid hydrochloride] | 8.5 | > 10 |  | 0.158 |
| CC(CN1CCC2(CC1)COc1cc(OCc3c(Cl)cc(Cl)cc3Cl)ccc12)C(=O)O (centres unmarked) [Compound 102, 2-Methyl-3-{6-[(2,4,6-trichlorophenyl)methoxy]-2H-spiro[1-benzofuran-3,4′-piperidine]-1′-yl}propanoic acid hydrochloride] | 7.8 |  | 0.631 |  |
| O=C(O)CCN1CCCC2(COc3cc(OCc4c(Cl)cccc4C(F)(F)F)ccc32)C1 (centres unmarked) [Compound 326, 3-(6-{[2-Chloro-6-(trifluoromethyl)phenyl]methoxy}-2H-spiro[1-benzofuran-3,3′-piperidine]-1′-yl)propanoic acid] |  | > 10 | > 31.6 |  |
| O=C(O)CCN1CCC2(CC1)COc1cc(SCc3c(Cl)cc(Cl)cc3Cl)ccc12 [Compound 143, 3-(6-{[(2,4,6-Trichlorophenyl)methyl]sulfanyl}-2H-spiro[1-benzofuran-3,4′-piperidine]-1′-yl}propanoic acid hydrochloride] | 7.5 |  | > 10 |  |
| CCCCCCCOc1ccc2c(c1F)OCC21CCN(CCC(=O)O)CC1 [Compound 276, 3-[7-fluoro-6-(heptyloxy)-2H-spiro[1-benzofuran-3,4′-piperidine]-1′-yl]propanoic acid] | 7.1 | > 10 | > 31.6 |  |
| O=C(O)CCN1CCC2(CC1)COc1cc(S(=O)(=O)Cc3c(Cl)cccc3Cl)ccc12 [Compound 299, 3-(6-{[(2,6-Dichlorophenyl)methane]sulfonyl}-2H-spiro[1-benzofuran-3,4′-piperidine]-1′-yl}propanoic acid hydrochloride] | 6 | > 10 | > 31.6 |  |
| O=C(O)CCN1CCC2(CC1)COc1cc(SCc3c(Cl)cccc3C3CC3)ccc12 [Compound 141, 3-(6-{[(2-Chloro-6-cyclopropylphenyl)methyl]sulfanyl}-2H-spiro[1-benzofuran-3,4′-piperidine]-1′-yl}propanoic acid hydrochloride] | 8.2 | > 10 | 0.316 |  |
| O=C(O)CCN1CCC2(CC1)COc1cc(C#Cc3ccccc3)ccc12 [Compound 303, 3-[6-(2-Phenylethynyl)-2H-spiro[1-benzofuran-3,4′-piperidine]-1′-yl]propanoic acid hydrochloride] | 7.6 | > 10 | > 31.6 |  |
| O=C(O)CCN1CCC2(CC1)OCc1cc(OCc3c(Cl)cccc3Cl)ccc12 [Compound 203, 3-{5-[(2,6-Dichlorophenyl)methoxy]-3-H-spiro[2-benzofuran-1,4′-piperidine]-1′-yl}propanoic acid hydrochloride] | 6.7 | > 10 | > 10 |  |
| O=C(O)CCN1CCC2(CC1)COc1cc(OCc3c(Cl)cccc3Cl)ccc12 [Compound 29, 3-{6-[(2,6-Dichlorophenyl)methoxy]-2H-spiro[1-benzofuran-3,4′-piperidine]-1′-yl}propanoic acid hydrochloride] | 7 | > 31.6 |  | > 10 |
| CC(CN1CCC2(CC1)COc1cc(SCc3c(Cl)cccc3Cl)ccc12)C(=O)O (centres unmarked) [Compound 153, 3-(6-{[(2,6-Dichlorophenyl)methyl]sulfanyl}-2H-spiro[1-benzofuran-3,4′-piperidine]-1′-yl}-2-methylpropanoic acid hydrochloride] | 7.9 |  | 1 |  |
| CCc1cccc(Cl)c1CSc1ccc2c(c1F)OCC21CCN(CCC(=O)O)CC1 [Compound 296, hydrochloride] | 8.7 | > 10 |  |  |
| CC(C)c1cccc(F)c1COc1ccc2c(c1)OCC21CCN(CCC(=O)O)CC1 [Compound 252, 3-(6-{[2-fluoro-6-(propan-2-yl)phenyl]methoxy}-2H-spiro[1-benzofuran-3,4′-piperidine]-1′-yl)propanoic acid] |  | 5.01 |  |  |
